Assay: recombinant UMI read abundance after kanamycin selection (control-corrected) (log10(CPM+1)); higher = more efficient recombination; extreme values may be limits of the assay; sequences stand for … in AGTGCAGAGAAAATCGGCCAGTTTTCTCTGCCTGCAGTCCGCATGCCGTGGGACCCCTTGGGTTCTAACCTGTTGCCTAGATTTATGCAGCGGACTGCCTTTCTCCCAAAGTGATAAACCGG…AGGTTGGTTTCACT; site = the 11-nt donor
Method in brief: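 Sequenced counts of recombinant UMIs were turned into CPM, averaged across replicates and scaled with control-derived factors. The reported figure is log10(CPM+1). Those UMIs, each 12 nt long, tagged donor and donor-binding-loop pairs on a plasmid with a promoterless kanamycin gene, screened as a pool in Escherichia coli with IPTG (0.07 mM) plus kanamycin or without selection.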
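Further: IS621 bridge recombinase in Escherichia coli cells against a fixed T5 target plasmid.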

Sequence	recombinant UMI read abundance (log10)
CCGTCTACATGGACCGGTTTTCCCGGTAATCCGTATTTGCT (site CCGTCTACTAG)	0.223
ATCCCTACATGGACCGGTTTTCCCGGTAATCCGTATTTGAG (site CTCCCTACTCT)	0.196
CTAGTGTCATGGACCGGTTTTCCCGGTAATCCGTATTTGGC (site CTAGTGTCTGC)	2.17
CGATCATCATGGACCGGTTTTCCCGGTAATCCGTATTTGCT (site CGATAAACTAG)	0.0203
ACAAGGCCATGGACCGGTTTTCCCGGTAATCCGTATTTGAC (site AGAAGGCCTGT)	0
AACTTGGCATGGACCGGTTTTCCCGGTAATCCGTATTTGGA (site GACTTGGCTTC)	0.439
CTCAACACATGGACCGGTTTTCCCGGTAATCCGTATTTGCT (site CTCTACACTAG)	1.23
AATTATGCATGGACCGGTTTTCCCGGTAATCCGTATTTGGA (site AACTATGCTTC)	1.02
CGGAATCCATGGACCGGTTTTCCCGGTAATCCGTATTTGTT (site CGGAAACCTAG)	0.112
GATTATCCATGGACCGGTTTTCCCGGTAATCCGTATTTGAT (site GATTATCCTAC)	0.0054
ACATCTACATGGACCGGTTTTCCCGGTAATCCGTATTTGTG (site ACATCTGCTCA)	0.0534
ACATCTACATGGACCGGTTTTCCCGGTAATCCGTATTTGTG (site ACATCTACTTA)	0
CGATCATCATGGACCGGTTTTCCCGGTAATCCGTATTTGCT (site CGAACATCTAG)	0.278
CACGGCACATGGACCGGTTTTCCCGGTAATCCGTATTTGTT (site CACGGCGCTAA)	0.6
ACTTCTACATGGACCGGTTTTCCCGGTAATCCGTATTTGTG (site ACCTCTACTCA)	0.00536
ACTGTAACATGGACCGGTTTTCCCGGTAATCCGTATTTGCT (site ATTGTAACTAG)	1.55
GGGAAAACATGGACCGGTTTTCCCGGTAATCCGTATTTGCT (site GGGAAAACTAG)	0
CGCCGTTCATGGACCGGTTTTCCCGGTAATCCGTATTTGCT (site CGCCGTTCTAG)	2.41
GTAGTTGCATGGACCGGTTTTCCCGGTAATCCGTATTTGCG (site GTAGTGGCTCG)	0.373

Sequence	recombinant UMI read abundance (log10)
ATAGTAGCATGGACCGGTTTTCCCGGTAATCCGTATTTGCA (site ATAGTAGCTTG)	3.08
CGAGGATCATGGACCGGTTTTCCCGGTAATCCGTATTTGGG (site CGAGGAACTCC)	0.0163
CGAAAAGCATGGACCGGTTTTCCCGGTAATCCGTATTTGCA (site CGAAAAGCTTG)	0
CACACATCATGGACCGGTTTTCCCGGTAATCCGTATTTGCC (site CACACATCTGG)	2.15
GTCAATCCATGGACCGGTTTTCCCGGTAATCCGTATTTGAA (site GGCAATCCTTT)	0.51
GGGGAGTCATGGACCGGTTTTCCCGGTAATCCGTATTTGCC (site CGGGAGTCTGG)	0
TAAACTCCATGGACCGGTTTTCCCGGTAATCCGTATTTGTA (site TAAAGTCCTTA)	0.221
AAGAACGCATGGACCGGTTTTCCCGGTAATCCGTATTTGGG (site AAGGACGCTCC)	0.0122
AGCTTTTCATGGACCGGTTTTCCCGGTAATCCGTATTTGAC (site AGCCTTTCTGT)	0
GACTAGTCATGGACCGGTTTTCCCGGTAATCCGTATTTGTG (site GACTAGTCTCA)	1.64
ATAGAGACATGGACCGGTTTTCCCGGTAATCCGTATTTGGT (site ATTGAGACTAC)	1.03
TAAAGTCCATGGACCGGTTTTCCCGGTAATCCGTATTTGTA (site TAAAGTACTTA)	0.459
AGGGCACCATGGACCGGTTTTCCCGGTAATCCGTATTTGCA (site TGGGCACCTTG)	0
CCAGGTCCATGGACCGGTTTTCCCGGTAATCCGTATTTGCA (site CCTGGTCCTTG)	0
ACTAACCCATGGACCGGTTTTCCCGGTAATCCGTATTTGGC (site ACTAACCCTGC)	0
ATTGAGCCATGGACCGGTTTTCCCGGTAATCCGTATTTGGT (site ATTGAGTCTAC)	0.633
GTAGTCTCATGGACCGGTTTTCCCGGTAATCCGTATTTGCG (site GTAGTCGCTCG)	0.176
CTTTACACATGGACCGGTTTTCCCGGTAATCCGTATTTGCT (site CTGTACACTAG)	1.59
TTGGAAACATGGACCGGTTTTCCCGGTAATCCGTATTTGCA (site CTGGAAACTTG)	1.21

Sequence	recombinant UMI read abundance (log10)
CCGTTACCATGGACCGGTTTTCCCGGTAATCCGTATTTGTG (site CCGTTAGCTCA)	0.0116
CACTCCTCATGGACCGGTTTTCCCGGTAATCCGTATTTGCA (site CACTCCTCTAG)	0.743
CGATCATCATGGACCGGTTTTCCCGGTAATCCGTATTTGCT (site CGAACACCTAG)	0
TGGCTCACATGGACCGGTTTTCCCGGTAATCCGTATTTGTG (site TGGCTCACTCA)	0.0236
TAATGAGCATGGACCGGTTTTCCCGGTAATCCGTATTTGAG (site TAATGAGCTCT)	1.33
ACCTATACATGGACCGGTTTTCCCGGTAATCCGTATTTGGG (site ACCTAGACTCC)	0.0071
CTTAGAACATGGACCGGTTTTCCCGGTAATCCGTATTTGGC (site GTTAGAACTGC)	0.016
GCTTGTTCATGGACCGGTTTTCCCGGTAATCCGTATTTGAA (site GCTTGTTCTTT)	0.489
AGACAGGCATGGACCGGTTTTCCCGGTAATCCGTATTTGCT (site AGAAAGGCTAG)	0
AATGATGCATGGACCGGTTTTCCCGGTAATCCGTATTTGGA (site AATAATGCTTC)	1.08
CCCATATCATGGACCGGTTTTCCCGGTAATCCGTATTTGTG (site CCCATATCTCA)	0.356
TTCGGGGCATGGACCGGTTTTCCCGGTAATCCGTATTTGTC (site TTCGGGGCTGA)	0
ACAAGAACATGGACCGGTTTTCCCGGTAATCCGTATTTGAG (site ACTAGAACTCT)	0.755
TGGTTTCCATGGACCGGTTTTCCCGGTAATCCGTATTTGCC (site TGGTTTCCTGG)	0
CTCAGGACATGGACCGGTTTTCCCGGTAATCCGTATTTGAG (site CTCAGGACTCT)	0
GGAGAGGCATGGACCGGTTTTCCCGGTAATCCGTATTTGGT (site GGAGAGGCTAC)	0.00324
GGGAAGACATGGACCGGTTTTCCCGGTAATCCGTATTTGCA (site TGGAAGACTTG)	1.19
GGCCACGCATGGACCGGTTTTCCCGGTAATCCGTATTTGTT (site GGCCACCCTAA)	0.023
TCCACCGCATGGACCGGTTTTCCCGGTAATCCGTATTTGCG (site TCGACCGCTCG)	0.023

Reference: the supplement of paper PMC11208160
